Several values for one entry are separate records, joined by “and”; a condition that tells them apart may be missing. Identical values can stand only once.
System: A375 multi-cell spheroids with HUVEC/MSC, viability
Assay: Anticancer human tumor A375 cell line growth inhibition [GQUAD];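 further: spheroids exposed to compounds for seven days before readout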
Settings: for viability, T/C: stronger effect = lower value
Text: DNA G-quadruplex Stabilizer Agents in Combinations in Complex Spheroids
A high-throughput screen of multi-cell type tumor spheroids was designed to identify active combinations of DNA G-quadruplex stabilizer agents and targeted small molecules. Complex spheroids include a stromal component modeled by human endothelial cells (HUVEC) and fibroblasts modeled by human mesenchymal stem cells (MSCs). The concentration ranges selected for each drug and investigational agent were based upon clinically achievable concentrations if the clinical Cmax of the agent was known.
Compounds. The drugs and investigational agents: pidnarulex (CX-5461; NSC782164), APTO-253 (NSC789042), BRACO-19 (NSC847499), peposertib (NSC802822), ceralasertib (NSC780249), elimusertib (NSC800525), camonsertib (NSC841442), AZD-1390 (NSC803789), olaparib (NSC753686), talazoparib (NSC767125), ART-558 (NSC835418), sotorasib (NSC818433), MRTX-1133 (NSC836407), SN-38 (NSC673596), topotecan (NSC609699), etoposide (NSC141540), doxorubicin (NSC123127), gemcitabine (NSC613327), 5-fluorouracil (NSC19893), paclitaxel (NSC125973), vemurafenib (NSC761431), panobinostat (NSC761190), R-306465 (JNJ-16241199; NSC773264), adavosertib (NSC754352), TP-3654 (NSC805149), carboplatin (NSC241240), KSQ-4279 (NSC840948), and staurosporine (NSC755774) were obtained from the National Cancer Institute (NCI) Developmental Therapeutics Program Chemical Repository (34). The FDA-approved anticancer drug set is available from the NCI Developmental Therapeutics Program. […] The stock solutions were prepared in dimethyl sulfoxide (DMSO, Sigma-Aldrich, St. Louis, MO, cat. D2650) at 800-fold the tested concentration and stored at -70 degrees C prior to their use. All drugs and investigational agents were tested over a range starting from a high concentration at or near the clinical Cmax and decreasing in half-log increments. If the clinical Cmax for an agent had not been determined, the highest concentration tested was 10 microM.
2.3 Cell Culture. All cells were maintained in an incubator at 37 degrees C and 5% CO2 with 95% humidity. The PDC lines were cultured according to standard operating procedures established by the NCI PDMR. All PDCs were thawed and cultured in Matrigel-coated flasks prepared with a working solution of 1X Ham's F-12 nutrient mix, without supplementation (Invitrogen, cat. 11765054), 100 U/mL penicillin-streptomycin (Invitrogen, cat. 15140122), and 2.5% Matrigel (Corning Inc., cat. 354248) for the first three passages. The 857933-349-R-J2-PDC line was cultured in 6C/Colon 1B media, which includes advanced DMEM/F-12 (Thermo Fisher Scientific, cat. 12634028), 10 mM HEPES (Thermo Fisher Scientific, cat. 15630080), 1X GlutaMAX supplement (Thermo Fisher Scientific, cat. 35050061), 0.1 mg/mL primocin (InvivoGen, cat. ant-pm-2), 10% defined fetal bovine serum, heat inactivated (HyClone Laboratories Inc., cat. SH30070.03HI), 50% L-WRN conditioned media (ATCC, cat. CRL-3276), 1.25 mM N-Acetyl-L-cysteine (Sigma-Aldrich, cat. A9165), 10 mM nicotinamide (Sigma-Aldrich, cat. N0636), 1X B-27 supplement (Thermo Fisher Scientific, cat. 17504044), 1X N-2 supplement (Thermo Fisher Scientific, cat. 17502048), 10 microM Y-27632 dihydrochloride (Tocris Bioscience, cat. 1254), and 50 ng/mL human EGF recombinant protein (Thermo Fisher Scientific, cat. PHG0311). The 485176-168-R4-J1-PDC line was cultured in Panc media, which includes all 6C/Colon 1B media components plus 100 ng/mL human FGF-10 (Thermo Fisher Scientific, cat. 100-26), 500 nM SB-431542 (Selleckchem, cat. S1067), and gastrin (Tocris, cat. 3006).
[…]

[1] = curve of first compound, second compound 0.0316 µM
[2] = curve of first compound, second compound 0.1 µM
[3] = curve of first compound, second compound 0.316 µM
[4] = curve of first compound, second compound 1 µM
[5] = curve of first compound, second compound 3.16 µM
[6] = curve of first compound, second compound 10 µM
[7] = second compound 0.0316 µM, first compound 0.0316 µM
[8] = second compound 0.0316 µM, first compound 0.316 µM
[9] = second compound 0.1 µM, first compound 0.0316 µM
[10] = second compound 0.1 µM, first compound 0.316 µM
[11] = second compound 0.316 µM, first compound 0.0316 µM
[12] = second compound 0.316 µM, first compound 0.316 µM
[13] = second compound 1 µM, first compound 0.0316 µM
[14] = second compound 1 µM, first compound 0.316 µM
[15] = second compound 3.16 µM, first compound 0.0316 µM
[16] = second compound 3.16 µM, first compound 0.316 µM
[17] = second compound 10 µM, first compound 0.0316 µM
[18] = second compound 10 µM, first compound 0.316 µM

`C=CC(=O)N1CCN(c2nc(=O)n(-c3c(C)ccnc3C(C)C)c3nc(-c4c(O)cccc4F)c(F)cc23)C(C)C1` (stereo not drawn) + Cc1[nH]c2ccc(F)cc2c1-c1nc2c3cccnc3c3ncccc3c2[nH]1 gave an IC50 [1] of over 10000 nM, an IC50 [2] of over 10000 nM and an IC50 [3] of over 10000 nM. The IC50 [4] was over 10000 nM, the IC50 [5] was over 10000 nM and the IC50 [6] was over 10000 nM. For the same molecule, the viability, T/C [7] was 101%, the viability, T/C (second compound 0.0316 µM, first compound 0.1 µM) was 102% and the viability, T/C [8] was 96.6%. The viability, T/C (second compound 0.0316 µM, first compound 1 µM) was 94.5%, the viability, T/C (second compound 0.0316 µM, first compound 3.16 µM) was 111% and the viability, T/C (second compound 0.0316 µM, first compound 10 µM) was 135%. For the same molecule, the viability, T/C [9] was 116%, the viability, T/C (second compound 0.1 µM, first compound 0.1 µM) was 97.8% and the viability, T/C [10] was 103%. It also gave a viability, T/C (second compound 0.1 µM, first compound 1 µM) of 93.3%, a viability, T/C (second compound 0.1 µM, first compound 3.16 µM) of 140% and a viability, T/C (second compound 0.1 µM, first compound 10 µM) of 149%. The viability, T/C [11] was 99%, the viability, T/C (second compound 0.316 µM, first compound 0.1 µM) was 102% and the viability, T/C [12] was 105%. It also gave a viability, T/C (second compound 0.316 µM, first compound 1 µM) of 113%, a viability, T/C (second compound 0.316 µM, first compound 3.16 µM) of 152% and a viability, T/C (second compound 0.316 µM, first compound 10 µM) of 150%. The viability, T/C [13] was 99.1%, the viability, T/C (second compound 1 µM, first compound 0.1 µM) was 103% and the viability, T/C [14] was 110%. The viability, T/C (second compound 1 µM, first compound 1 µM) was 120%, the viability, T/C (second compound 1 µM, first compound 3.16 µM) was 161% and the viability, T/C (second compound 1 µM, first compound 10 µM) was 141%. For the same molecule, the viability, T/C [15] was 94.2%, the viability, T/C (second compound 3.16 µM, first compound 0.1 µM) was 95.5% and the viability, T/C [16] was 104%. For the same molecule, the viability, T/C (second compound 3.16 µM, first compound 1 µM) was 93.6%, the viability, T/C (second compound 3.16 µM, first compound 3.16 µM) was 104% and the viability, T/C (second compound 3.16 µM, first compound 10 µM) was 52.9%. It also gave a viability, T/C [17] of 108%, a viability, T/C (second compound 10 µM, first compound 0.1 µM) of 99% and a viability, T/C [18] of 116%. For the same molecule, the viability, T/C (second compound 10 µM, first compound 1 µM) was 96.3%, the viability, T/C (second compound 10 µM, first compound 3.16 µM) was 121% and the viability, T/C (second compound 10 µM, first compound 10 µM) was 79.8%.

`COc1cccc2c1C(=O)c1c(O)c3c(c(O)c1C2=O)CC(O)(C(=O)CO)CC3OC1CC(N)C(O)C(C)O1` (stereo not drawn) was tested, and the viability, T/C (compound 0.0316 µM) was 93% and 102% and 100%, the viability, T/C (compound 0.1 µM) was 89.2% and 78.7% and 73.9% and the viability, T/C (compound 0.316 µM) was 33.4% and 33.9% and 34.3%. The viability, T/C (compound 1 µM) was 19.4% and 18.2% and 21.9%, the viability, T/C (compound 3.16 µM) was 1.94% and 2.47% and 2.18% and the viability, T/C (compound 10 µM) was 0.14% and 0.19% and 0.1%. For the same molecule, the IC50 (curve of compound) was 231 nM and 221 nM and 215 nM.

`Cn1ncnc1[C@H]1c2n[nH]c(=O)c3cc(F)cc(c23)N[C@@H]1c1ccc(F)cc1` + Cc1[nH]c2ccc(F)cc2c1-c1nc2c3cccnc3c3ncccc3c2[nH]1 showed an IC50 [1] of over 316 nM, an IC50 [2] of over 316 nM and an IC50 [3] of over 316 nM. For the same molecule, the IC50 [4] was over 316 nM, the IC50 [5] was over 316 nM and the IC50 [6] was over 316 nM. For the same molecule, the viability, T/C (second compound 0.0316 µM, first compound 0.000999 µM) was 106%, the viability, T/C (second compound 0.0316 µM, first compound 0.00316 µM) was 98.1% and the viability, T/C (second compound 0.0316 µM, first compound 0.00999 µM) was 108%. For the same molecule, the viability, T/C [7] was 106%, the viability, T/C (second compound 0.0316 µM, first compound 0.0999 µM) was 104% and the viability, T/C [8] was 97.4%. The viability, T/C (second compound 0.1 µM, first compound 0.000999 µM) was 96.3%, the viability, T/C (second compound 0.1 µM, first compound 0.00316 µM) was 97.5% and the viability, T/C (second compound 0.1 µM, first compound 0.00999 µM) was 102%. It also gave a viability, T/C [9] of 103%, a viability, T/C (second compound 0.1 µM, first compound 0.0999 µM) of 125% and a viability, T/C [10] of 114%. The viability, T/C (second compound 0.316 µM, first compound 0.000999 µM) was 108%, the viability, T/C (second compound 0.316 µM, first compound 0.00316 µM) was 105% and the viability, T/C (second compound 0.316 µM, first compound 0.00999 µM) was 106%. It also gave a viability, T/C [11] of 112%, a viability, T/C (second compound 0.316 µM, first compound 0.0999 µM) of 131% and a viability, T/C [12] of 121%. For the same molecule, the viability, T/C (second compound 1 µM, first compound 0.000999 µM) was 100%, the viability, T/C (second compound 1 µM, first compound 0.00316 µM) was 98% and the viability, T/C (second compound 1 µM, first compound 0.00999 µM) was 115%. It also gave a viability, T/C [13] of 137%, a viability, T/C (second compound 1 µM, first compound 0.0999 µM) of 138% and a viability, T/C [14] of 116%. It also gave a viability, T/C (second compound 3.16 µM, first compound 0.000999 µM) of 83.7%, a viability, T/C (second compound 3.16 µM, first compound 0.00316 µM) of 93.6% and a viability, T/C (second compound 3.16 µM, first compound 0.00999 µM) of 92.3%. It also gave a viability, T/C [15] of 78.3%, a viability, T/C (second compound 3.16 µM, first compound 0.0999 µM) of 80.7% and a viability, T/C [16] of 72%. It also gave a viability, T/C (second compound 10 µM, first compound 0.000999 µM) of 106%, a viability, T/C (second compound 10 µM, first compound 0.00316 µM) of 95.7% and a viability, T/C (second compound 10 µM, first compound 0.00999 µM) of 112%. It also gave a viability, T/C [17] of 101%, a viability, T/C (second compound 10 µM, first compound 0.0999 µM) of 96.8% and a viability, T/C [18] of 90.9%.

For `Cc1[nH]c2ccccc2c1CCNCc1ccc(/C=C/C(=O)NO)cc1`, the viability, T/C (compound 0.000999 µM) was 103% and 99.2% and 97.9%, the viability, T/C (compound 0.00316 µM) was 98.1% and 105% and 101% and the viability, T/C (compound 0.00999 µM) was 110% and 118% and 113%. For the same molecule, the viability, T/C (compound 0.0316 µM) was 114% (2×) and 115%, the viability, T/C (compound 0.0999 µM) was 49.5% and 57.8% and 96% and the viability, T/C (compound 0.316 µM) was 7.14% and 9% and 10.9%. The IC50 (curve of compound) was 99.1 nM and 120 nM and 186 nM.
